Data as given in patent US9556191B2, “Aminoquinazoline derivatives and their salts and methods of use thereof” (SUNSHINE LAKE PHARMA CO., LTD, priority 2013, dated 2017).

Columns and labels:
[1] = biological target: EGFR T790M (human epidermal growth factor receptor T790M mutation) (Homo sapiens (Human), UniProt P00533, T790M); test: In vitro kinase inhibitory activity, EGFR T790M; format: biochemical
Description: (§1) Stop buffer was prepared from 100 mM HEPES, pH 7.5, 0.015% Brij-35, 0.2% Coating Reagent #3, and 50 mM EDTA.
(§2) Kinase reaction was performed according to the following procedures: (1) 2.5× kinase solution was prepared by adding kinase into 1× kinase base buffer; (2) 2.5× peptide solution was prepared by adding FAM-labeled peptide and ATP into 1× kinase base buffer; (3) 2.5× kinase solution (10 μL) was added to each well of the 384-well assay plate containing 5 μL of compound in 10% DMSO and then the assay plate was incubated at room temperature for 10 minutes; (4) 2.5× peptide solution (10 μL) was added to each well of the 384-well assay plate; and (5) stop buffer (25 μL) was added to stop the kinase reaction after incubation at 28° C. for a specified period of time.
(§3) Multifunctional microplate reader (BMG LABTECH, PHER Astar FS) with a 320 nm excitation wavelength was used to read and collected the data of by absorbing light at […], which was converted from the rate of 665 signal/620 signal.
(§4) Conversion data were copied, and then converted to inhibition values with the following formula: percent inhibition=(max−conversion)/(max−min)*100 where “max” stands for the DMSO control value, “conversion” stands for the sample value and “[…]” stands for the no-kinase control value. The data were fitted in XLfit to obtain IC50 values.

[2] = biological target: EGFR (human epidermal growth factor receptor) (Homo sapiens (Human), UniProt P00533); test: In vitro kinase inhibitory activity, EGFR; format: biochemical
Description: as §1, §2, §3, §4

[3] = Rat PK (pharmacokinetics after iv and po administration); format: in vivo; conditions: male, SD, plasma; for Vd: read-out: Vss; for bioavailability: po 5 vs iv 2 (g/kg [sic]; mg/kg in method), read-out: F (bioavailability)
Description: Materials used include Propranolol (internal standard), methyl alcohol, ammonium acetate, K2EDTA (potassium ethylenediaminetetraacetate), methane acid, acetonitrile, MTBE (methyl tert-butyl ether), Cremophor EL (polyoxyethylated castor oil), KolliphorHS 15 (polyethylene glycol 12-hydroxystearate), DMSO (dimethylsulfoxide), PEG400 (polyethylene glycol 400) and SD rat (male, 180-220 g, 7-8 weeks old, purchased from Hunan Slack King of Laboratory Animal Co., Ltd.), all of which are commercially available.
Each test compound prepared in above examples was completely dissolved in a mixture of 5% DMSO, 5% KolliphorHS 15 and 90% saline.
(1) The test sample stock solution was prepared by dissolving an accurately weighed test sample in DMSO followed by dilution to the concentration of 1 mg/mL with acetonitrile. The stock solution was stored under the condition of −20° C. for later use.
(2) Internal standard solution was prepared by diluting a certain amount of the Propranolol stock solution in the concentration of 1 mg/mL to 100 ng/mL with water.
Samples treated with liquid-liquid extraction and chromatographic separation were analyzed by triple quadrupole tandem mass spectrometer in multiple reaction monitoring (MRM) mode for quantitative analysis.
Pretreatment of plasma sample was performed according to the following procedures: (1) plasma sample (30 μL) was precisely measured, and internal standard (250 μL) was then added to the plasma sample which was then mixed by vortexing; (2) the sample was extracted once with 1 mL of MTBE and then centrifuged at 13000 rpm for 2 minutes at 4° C.; (3) supernatant (800 μL) was aspirated and dried with 96 holes nitrogen gas blowing; (4) the residue was dissolved with 150 μL of a mixture of methanol and water (v/v=1/1) and then mixed by vortexing; and (5) sampling: sample quantity was 8 μL.
Preparation of standard sample was performed according to the following procedures: (1) a pre-determined amount of the compound stock solution was precisely measured, and then was diluted to standard series of solution with acetonitrile; (2) each of the standard solution (20 μL) prepared above was precisely measured and to each was added 180 μL of blank plasma; (3) each sample was mixed by vortexing to obtain series of standard samples in which the plasma concentration was 3, 5, 10, 30, 100, 300, 1000, 3000, 5000 or 10000 ng/mL; and (4) standard curve was established.
The content of each test compound in rat plasma after administration was determined by LC/MS/MS.
Noncompartmental analysis to calculate pharmacokinetic parameters was performed with WinNonlin 6.1 software.

[4] = biological target: HER2 (human epidermal growth factor receptor 2) (Homo sapiens (Human), UniProt P04626); test: In vitro kinase inhibitory activity, HER-2; format: biochemical
Description: as §1
as §2, with “time. […]” for “time.”
as §4

[5] = iv(2 g/kg) [sic], method says 2 mg/kg
[6] = po(5 g/kg) [sic], method says 5 mg/kg

EGFR (human epidermal growth factor receptor), sequence (P00533 25-1210): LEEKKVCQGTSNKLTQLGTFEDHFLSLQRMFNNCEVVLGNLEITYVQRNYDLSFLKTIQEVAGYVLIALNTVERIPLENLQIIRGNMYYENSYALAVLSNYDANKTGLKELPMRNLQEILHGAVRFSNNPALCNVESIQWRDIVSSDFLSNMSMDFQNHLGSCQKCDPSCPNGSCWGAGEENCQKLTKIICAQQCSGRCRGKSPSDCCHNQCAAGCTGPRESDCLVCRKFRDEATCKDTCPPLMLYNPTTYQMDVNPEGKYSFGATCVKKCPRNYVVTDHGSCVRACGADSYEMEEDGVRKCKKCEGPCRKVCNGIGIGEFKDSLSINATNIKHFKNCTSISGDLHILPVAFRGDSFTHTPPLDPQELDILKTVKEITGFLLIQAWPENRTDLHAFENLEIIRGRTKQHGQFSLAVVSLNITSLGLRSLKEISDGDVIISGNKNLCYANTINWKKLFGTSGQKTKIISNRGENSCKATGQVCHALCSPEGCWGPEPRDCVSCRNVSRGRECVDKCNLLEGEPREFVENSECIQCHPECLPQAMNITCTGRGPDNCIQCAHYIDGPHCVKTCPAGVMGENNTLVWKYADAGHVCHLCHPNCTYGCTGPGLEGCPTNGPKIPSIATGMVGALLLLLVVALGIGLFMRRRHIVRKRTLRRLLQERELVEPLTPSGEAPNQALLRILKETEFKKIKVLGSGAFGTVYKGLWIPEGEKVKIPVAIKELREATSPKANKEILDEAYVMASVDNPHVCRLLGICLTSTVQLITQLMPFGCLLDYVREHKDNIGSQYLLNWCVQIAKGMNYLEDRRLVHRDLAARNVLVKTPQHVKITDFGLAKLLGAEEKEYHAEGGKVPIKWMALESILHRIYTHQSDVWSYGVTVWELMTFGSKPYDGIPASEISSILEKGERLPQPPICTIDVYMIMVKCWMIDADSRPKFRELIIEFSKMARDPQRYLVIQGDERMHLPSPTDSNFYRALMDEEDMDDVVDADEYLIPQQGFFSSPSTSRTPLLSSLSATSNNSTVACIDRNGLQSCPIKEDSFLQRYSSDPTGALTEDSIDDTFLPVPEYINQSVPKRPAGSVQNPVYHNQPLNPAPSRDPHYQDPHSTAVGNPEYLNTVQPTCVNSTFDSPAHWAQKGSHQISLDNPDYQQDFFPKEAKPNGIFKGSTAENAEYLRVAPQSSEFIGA
EGFR T790M (human epidermal growth factor receptor T790M mutation), sequence (P00533 25-1210 T790M): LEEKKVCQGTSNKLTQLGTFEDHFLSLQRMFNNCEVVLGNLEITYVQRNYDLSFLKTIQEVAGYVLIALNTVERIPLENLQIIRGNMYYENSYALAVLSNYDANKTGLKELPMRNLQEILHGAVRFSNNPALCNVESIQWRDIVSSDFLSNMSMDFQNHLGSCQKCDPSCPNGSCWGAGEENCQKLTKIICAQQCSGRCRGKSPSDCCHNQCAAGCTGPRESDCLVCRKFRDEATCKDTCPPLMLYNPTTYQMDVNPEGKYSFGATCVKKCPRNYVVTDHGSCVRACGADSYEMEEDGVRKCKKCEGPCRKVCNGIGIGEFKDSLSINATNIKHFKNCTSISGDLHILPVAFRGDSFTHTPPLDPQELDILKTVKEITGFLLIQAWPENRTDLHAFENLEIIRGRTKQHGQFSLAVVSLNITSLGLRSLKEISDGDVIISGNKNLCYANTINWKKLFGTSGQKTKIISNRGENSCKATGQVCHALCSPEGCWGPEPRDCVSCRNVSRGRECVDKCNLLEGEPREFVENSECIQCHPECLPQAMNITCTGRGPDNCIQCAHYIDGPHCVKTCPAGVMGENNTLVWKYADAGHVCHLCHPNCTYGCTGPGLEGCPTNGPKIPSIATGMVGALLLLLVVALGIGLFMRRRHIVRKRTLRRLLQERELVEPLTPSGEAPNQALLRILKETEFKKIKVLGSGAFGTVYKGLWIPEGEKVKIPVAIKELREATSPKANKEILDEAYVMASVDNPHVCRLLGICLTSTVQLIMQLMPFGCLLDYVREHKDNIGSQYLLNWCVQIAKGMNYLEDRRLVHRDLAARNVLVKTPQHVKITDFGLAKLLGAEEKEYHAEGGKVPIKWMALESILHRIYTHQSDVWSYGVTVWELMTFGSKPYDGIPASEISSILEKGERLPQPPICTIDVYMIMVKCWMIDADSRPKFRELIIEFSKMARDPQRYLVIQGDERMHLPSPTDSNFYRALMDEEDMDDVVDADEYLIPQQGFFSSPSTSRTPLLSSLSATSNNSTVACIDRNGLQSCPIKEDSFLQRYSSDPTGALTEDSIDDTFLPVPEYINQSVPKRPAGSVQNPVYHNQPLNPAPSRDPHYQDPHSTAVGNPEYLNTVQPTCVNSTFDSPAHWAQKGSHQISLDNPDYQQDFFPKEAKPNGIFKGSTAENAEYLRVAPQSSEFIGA
HER2 (human epidermal growth factor receptor 2), sequence (P04626 23-1255): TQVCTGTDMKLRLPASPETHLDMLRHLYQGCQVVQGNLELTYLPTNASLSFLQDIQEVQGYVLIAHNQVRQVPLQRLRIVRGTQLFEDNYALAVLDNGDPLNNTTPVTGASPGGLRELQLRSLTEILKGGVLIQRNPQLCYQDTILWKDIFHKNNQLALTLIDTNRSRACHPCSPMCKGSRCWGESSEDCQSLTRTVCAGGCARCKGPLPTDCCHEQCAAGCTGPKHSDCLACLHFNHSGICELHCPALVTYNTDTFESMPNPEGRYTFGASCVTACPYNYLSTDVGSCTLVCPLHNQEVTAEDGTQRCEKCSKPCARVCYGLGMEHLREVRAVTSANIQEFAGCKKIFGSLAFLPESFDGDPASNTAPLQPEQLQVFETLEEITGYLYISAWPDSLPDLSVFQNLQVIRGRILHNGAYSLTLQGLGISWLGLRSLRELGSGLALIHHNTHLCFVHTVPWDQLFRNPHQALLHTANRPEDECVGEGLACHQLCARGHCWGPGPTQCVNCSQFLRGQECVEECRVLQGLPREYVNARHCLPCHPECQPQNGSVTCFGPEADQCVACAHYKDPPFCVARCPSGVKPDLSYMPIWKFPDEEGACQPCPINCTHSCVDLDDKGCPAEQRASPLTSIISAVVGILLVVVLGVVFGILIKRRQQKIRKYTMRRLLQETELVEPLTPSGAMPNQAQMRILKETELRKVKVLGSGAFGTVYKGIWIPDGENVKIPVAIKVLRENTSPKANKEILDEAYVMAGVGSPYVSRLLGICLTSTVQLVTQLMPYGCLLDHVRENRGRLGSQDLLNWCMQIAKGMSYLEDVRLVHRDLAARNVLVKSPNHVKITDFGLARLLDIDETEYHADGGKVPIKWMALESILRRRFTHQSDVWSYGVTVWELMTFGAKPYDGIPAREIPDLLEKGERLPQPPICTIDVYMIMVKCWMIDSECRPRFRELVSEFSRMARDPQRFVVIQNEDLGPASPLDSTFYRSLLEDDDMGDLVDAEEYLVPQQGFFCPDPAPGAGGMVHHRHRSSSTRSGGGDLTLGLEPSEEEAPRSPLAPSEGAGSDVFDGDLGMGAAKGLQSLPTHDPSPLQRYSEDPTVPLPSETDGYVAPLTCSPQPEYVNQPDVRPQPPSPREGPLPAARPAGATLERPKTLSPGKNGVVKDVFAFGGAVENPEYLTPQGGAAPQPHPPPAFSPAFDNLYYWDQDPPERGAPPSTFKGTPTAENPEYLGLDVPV

Compound	IC50 [1]	IC50 [2]	AUC(0-t) [3, 5]	Cmax [3, 5]	half-life [3, 5]	Vd [3, 5]	bioavailability [3]	AUC(0-t) [3, 6]	Cmax [3, 6]	half-life [3, 6]	IC50 [4]
CCOc1cc2ncnc(Nc3ccc(OCc4ccccn4)c(Cl)c3)c2cc1NC(=O)/C=C/CN1C[C@@H]2OCCO[C@@H]2C1 [Example 24, (E)-N-(4-((3-Chloro-4-(pyridin-2-ylmethoxy)phenyl)amino)-7-ethoxyquinazolin-6-yl)-4-((4aR,7aS)-tetrahydro-2H-[1,4]dioxino[2,3-c]pyrrol-6(3H)-yl)but-2-enamide]	4.2 nM	18.4 nM	10500 ng·h/mL	2930 ng/mL	3.59 h	0.79 L/kg	87.1%	22900 ng·h/mL	2770 ng/mL	3.49 h	1.7 nM
O=C(/C=C/CN1C[C@@H]2OCCO[C@@H]2C1)Nc1cc2c(Nc3ccc(OCc4ccccn4)c(Cl)c3)ncnc2cc1O[C@H]1CCOC1 [Example 25, (E)-N-(4-((3-Chloro-4-(pyridin-2-ylmethoxy)phenyl)amino)-7-(((S)-tetrahydrofuran-3-yl)oxy)quinazolin-6-yl)-4-((4aR,7aS)-tetrahydro-2H-[1,4]dioxino[2,3-c]pyrrol-6(3H)-yl)but-2-enamide]	5.9 nM	8.6 nM	4530 ng·h/mL	4110 ng/mL	1.42 h	0.65 L/kg	5.94%	474 ng·h/mL	73 ng/mL	4.42 h	2.5 nM
O=C(/C=C/CN1C[C@@H]2OCCO[C@@H]2C1)Nc1cc2c(Nc3ccc(Cl)c(Cl)c3F)ncnc2cc1O[C@H]1CCOC1 [Example 34, (E)-N-(4-((3,4-Dichloro-2-fluorophenyl)amino)-7-(((S)-tetrahydrofuran-3-yl)oxy)quinazolin-6-yl)-4-((4aR,7aS)-tetrahydro-2H-[1,4]dioxino[2,3-c]pyrrol-6(3H)-yl)but-2-enamide]	7 nM	3.3 nM	951 ng·h/mL	645 ng/mL	1.15 h	3.18 L/kg	68.7%	1550 ng·h/mL	378 ng/mL	1.4 h	20.3 nM
CCOc1cc2ncnc(Nc3ccc(Cl)c(Cl)c3F)c2cc1NC(=O)/C=C/CN1C[C@@H]2OCCO[C@@H]2C1 [Example 32, (E)-N-(4-((3,4-Dichloro-2-fluorophenyl)amino)-7-ethoxyquinazolin-6-yl)-4-((4aR,7aS)-tetrahydro-2H-[1,4]dioxino[2,3-c]pyrrol-6(3H)-yl)but-2-enamide]	4 nM	1.2 nM	2170 ng·h/mL	1000 ng/mL	2.95 h	2.97 L/kg	108%	6220 ng·h/mL	748 ng/mL	2.97 h	7 nM
COc1cc2ncnc(Nc3ccc4c(cnn4Cc4cccc(F)c4)c3)c2cc1NC(=O)/C=C/CN1C[C@@H]2OCCO[C@@H]2C1 [Example 27, (E)-N-(4-((1-(3-Fluorobenzyl)-1H-indazol-5-yl)amino)-7-methoxyquinazolin-6-yl)-4-((4aR,7aS)-tetra hydro-2H-[1,4]dioxin[2,3-c]pyrrol-6(3H)-yl)but-2-enamide]	22.9 nM	7.9 nM	1190 ng·h/mL	923 ng/mL	1.97 h	3.65 L/kg	10.8%	303 ng·h/mL	67.8 ng/mL	2.33 h	2.2 nM
COc1cc2ncnc(Nc3ccc(OCc4ccccn4)c(Cl)c3)c2cc1NC(=O)/C=C/CN1C[C@@H]2OCCO[C@@H]2C1 [Example 23, (E)-N-(4-((3-Chloro-4-(pyridin-2-ylmethoxy)phenyl)amino)-7-methoxyquinazolin-6-yl)-4-((4 aR,7aS)tetrahydro-2H-[1,4]dioxino[2,3-c]pyrrol-6(3H)-yl)but-2-enamide]	8.5 nM	60.4 nM	7560 ng·h/mL	2770 ng/mL	3.06 h	0.88 L/kg	73.5%	13900 ng·h/mL	1930 ng/mL	2.77 h	1.8 nM
